According to PubChem BioAssay (NCI):
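Interpolation was linear, between the two tested concentrations surrounding the appropriate level; five concentrations were tested over 48 hours in 96-well plates. The concentration for 50% growth inhibition is given as GI50. TGI marks complete inhibition of growth.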

Columns and labels:
Assay in all cases: DTP human tumour cell line panel, 48 h
786-0 renal = system: 786-0 renal
A498 renal = system: A498 renal
A549 NSCLC = system: A549 NSCLC
ACHN renal = system: ACHN renal
BT-549 breast = system: BT-549 breast
CAKI-1 renal = system: CAKI-1 renal
CCRF-CEM leukemia = system: CCRF-CEM leukemia
COLO 205 colon = system: COLO 205 colon
DU-145 prostate = system: DU-145 prostate
EKVX NSCLC = system: EKVX NSCLC
HCC-2998 colon = system: HCC-2998 colon
HCT-116 colon = system: HCT-116 colon
HCT-15 colon = system: HCT-15 colon
HL-60(TB) leukemia = system: HL-60(TB) leukemia
HOP-62 NSCLC = system: HOP-62 NSCLC
HOP-92 NSCLC = system: HOP-92 NSCLC
HS 578T breast = system: HS 578T breast
HT29 colon = system: HT29 colon
IGROV1 ovarian = system: IGROV1 ovarian
K-562 leukemia = system: K-562 leukemia
KM12 colon = system: KM12 colon
LOX IMVI melanoma = system: LOX IMVI melanoma
M14 melanoma = system: M14 melanoma
MALME-3M melanoma = system: MALME-3M melanoma
MCF7 breast = system: MCF7 breast
MDA-MB-231 breast = system: MDA-MB-231 breast
MDA-MB-435 = system: MDA-MB-435
MDA-MB-468 breast = system: MDA-MB-468 breast
MOLT-4 leukemia = system: MOLT-4 leukemia
NCI-H226 lung = system: NCI-H226 lung
NCI-H23 lung = system: NCI-H23 lung
NCI-H460 lung = system: NCI-H460 lung
NCI-H522 lung = system: NCI-H522 lung
NCI/ADR-RES ovarian = system: NCI/ADR-RES ovarian
OVCAR-3 ovarian = system: OVCAR-3 ovarian
OVCAR-4 ovarian = system: OVCAR-4 ovarian
OVCAR-5 ovarian = system: OVCAR-5 ovarian
OVCAR-8 ovarian = system: OVCAR-8 ovarian
PC-3 prostate = system: PC-3 prostate
RPMI-8226 leukemia = system: RPMI-8226 leukemia
RXF 393 renal = system: RXF 393 renal
SF-268 CNS = system: SF-268 CNS
SF-295 CNS = system: SF-295 CNS
SF-539 CNS = system: SF-539 CNS
SK-MEL-2 melanoma = system: SK-MEL-2 melanoma
SK-MEL-28 melanoma = system: SK-MEL-28 melanoma
SK-MEL-5 melanoma = system: SK-MEL-5 melanoma
SK-OV-3 ovarian = system: SK-OV-3 ovarian
SN12C renal = system: SN12C renal
SNB-19 CNS = system: SNB-19 CNS
SNB-75 CNS = system: SNB-75 CNS
SR leukemia = system: SR leukemia
SW-620 colon = system: SW-620 colon
T-47D breast = system: T-47D breast
TK-10 renal = system: TK-10 renal
U251 CNS = system: U251 CNS
UACC-257 melanoma = system: UACC-257 melanoma
UACC-62 melanoma = system: UACC-62 melanoma
UO-31 renal = system: UO-31 renal

CC1[C@H]2[C@H](C[C@H]3[C@@H]4CC=C5c6sc(Nc7ccccc7F)nc6CC[C@]5(C)[C@H]4CC[C@@]32C)O[C@]12CC[C@@H](C)CO2 (stereo partly drawn)
GI50 (786-0 renal): 85.4 µM | TGI (786-0 renal): > 100 µM | GI50 (A498 renal): > 100 µM | TGI (A498 renal): > 100 µM | GI50 (A549 NSCLC): > 100 µM | TGI (A549 NSCLC): > 100 µM | GI50 (ACHN renal): > 100 µM | TGI (ACHN renal): > 100 µM | GI50 (BT-549 breast): 26.4 µM | TGI (BT-549 breast): > 100 µM | GI50 (CAKI-1 renal): > 100 µM | TGI (CAKI-1 renal): > 100 µM | GI50 (CCRF-CEM leukemia): 5.1 µM | TGI (CCRF-CEM leukemia): > 100 µM | GI50 (COLO 205 colon): 62.1 µM | TGI (COLO 205 colon): > 100 µM | GI50 (DU-145 prostate): > 100 µM | TGI (DU-145 prostate): > 100 µM | GI50 (EKVX NSCLC): > 100 µM | TGI (EKVX NSCLC): > 100 µM | GI50 (HCC-2998 colon): > 100 µM | TGI (HCC-2998 colon): > 100 µM | GI50 (HCT-116 colon): 37.3 µM | TGI (HCT-116 colon): > 100 µM | GI50 (HCT-15 colon): 56.1 µM | TGI (HCT-15 colon): > 100 µM | GI50 (HL-60(TB) leukemia): 30.1 µM | TGI (HL-60(TB) leukemia): > 100 µM | GI50 (HOP-62 NSCLC): > 100 µM | TGI (HOP-62 NSCLC): > 100 µM | GI50 (HOP-92 NSCLC): 42.3 µM | TGI (HOP-92 NSCLC): > 100 µM | GI50 (HS 578T breast): > 100 µM | TGI (HS 578T breast): > 100 µM | GI50 (HT29 colon): 60.3 µM | TGI (HT29 colon): > 100 µM | GI50 (IGROV1 ovarian): > 100 µM | TGI (IGROV1 ovarian): > 100 µM | GI50 (K-562 leukemia): 26.6 µM | TGI (K-562 leukemia): > 100 µM | GI50 (KM12 colon): > 100 µM | TGI (KM12 colon): > 100 µM | GI50 (LOX IMVI melanoma): 67.1 µM | TGI (LOX IMVI melanoma): > 100 µM | GI50 (M14 melanoma): 86.7 µM | TGI (M14 melanoma): > 100 µM | GI50 (MALME-3M melanoma): > 100 µM | TGI (MALME-3M melanoma): > 100 µM | GI50 (MCF7 breast): 38.2 µM | TGI (MCF7 breast): > 100 µM | GI50 (MDA-MB-231 breast): > 100 µM | TGI (MDA-MB-231 breast): > 100 µM | GI50 (MDA-MB-435): 95.4 µM | TGI (MDA-MB-435): > 100 µM | GI50 (MDA-MB-468 breast): 25.1 µM | TGI (MDA-MB-468 breast): > 100 µM | GI50 (MOLT-4 leukemia): 25.7 µM | TGI (MOLT-4 leukemia): > 100 µM | GI50 (NCI-H226 lung): > 100 µM | TGI (NCI-H226 lung): > 100 µM | GI50 (NCI-H23 lung): 59.5 µM | TGI (NCI-H23 lung): > 100 µM | GI50 (NCI-H460 lung): 91.1 µM | TGI (NCI-H460 lung): > 100 µM | GI50 (NCI-H522 lung): 34.7 µM | TGI (NCI-H522 lung): > 100 µM | GI50 (NCI/ADR-RES ovarian): > 100 µM | TGI (NCI/ADR-RES ovarian): > 100 µM | GI50 (OVCAR-3 ovarian): > 100 µM | TGI (OVCAR-3 ovarian): > 100 µM | GI50 (OVCAR-4 ovarian): > 100 µM | TGI (OVCAR-4 ovarian): > 100 µM | GI50 (OVCAR-5 ovarian): > 100 µM | TGI (OVCAR-5 ovarian): > 100 µM | GI50 (OVCAR-8 ovarian): > 100 µM | TGI (OVCAR-8 ovarian): > 100 µM | GI50 (PC-3 prostate): 26.3 µM | TGI (PC-3 prostate): > 100 µM | GI50 (RPMI-8226 leukemia): 35.5 µM | TGI (RPMI-8226 leukemia): > 100 µM | GI50 (RXF 393 renal): 9.09 µM | TGI (RXF 393 renal): 66.7 µM | GI50 (SF-268 CNS): > 100 µM | TGI (SF-268 CNS): > 100 µM | GI50 (SF-295 CNS): 53.3 µM | TGI (SF-295 CNS): > 100 µM | GI50 (SF-539 CNS): 80.9 µM | TGI (SF-539 CNS): > 100 µM | GI50 (SK-MEL-2 melanoma): > 100 µM | TGI (SK-MEL-2 melanoma): > 100 µM | GI50 (SK-MEL-28 melanoma): > 100 µM | TGI (SK-MEL-28 melanoma): > 100 µM | GI50 (SK-MEL-5 melanoma): 31.7 µM | TGI (SK-MEL-5 melanoma): > 100 µM | GI50 (SK-OV-3 ovarian): > 100 µM | TGI (SK-OV-3 ovarian): > 100 µM | GI50 (SN12C renal): > 100 µM | TGI (SN12C renal): > 100 µM | GI50 (SNB-19 CNS): > 100 µM | TGI (SNB-19 CNS): > 100 µM | GI50 (SNB-75 CNS): 31.2 µM | TGI (SNB-75 CNS): > 100 µM | GI50 (SR leukemia): 24.8 µM | TGI (SR leukemia): > 100 µM | GI50 (SW-620 colon): 76.1 µM | TGI (SW-620 colon): > 100 µM | GI50 (T-47D breast): 25 µM | TGI (T-47D breast): > 100 µM | GI50 (TK-10 renal): > 100 µM | TGI (TK-10 renal): > 100 µM | GI50 (U251 CNS): > 100 µM | TGI (U251 CNS): > 100 µM | GI50 (UACC-257 melanoma): 54.1 µM | TGI (UACC-257 melanoma): > 100 µM | GI50 (UACC-62 melanoma): 43.1 µM | TGI (UACC-62 melanoma): > 100 µM | GI50 (UO-31 renal): > 100 µM | TGI (UO-31 renal): > 100 µM
